Results reported in ChEMBL document CHEMBL1201862, “PubChem BioAssay data set” (2004).
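48-hour exposure; five concentrations; linearly interpolated endpoints. The concentration for 50% growth inhibition is given as GI50.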 Calls of active or inactive are those of the source. No stated cut-off is given here; in the data, active = GI50 up to about 1.1 µM and inactive = higher.

Experiments:
Test in all cases: NCI-60 cell line screen, 48 h
UACC-62 = tested on: UACC-62
NCI-H460 = tested on: NCI-H460
RPMI-8226 = tested on: RPMI-8226
LOX IMVI = tested on: LOX IMVI
OVCAR-8 = tested on: OVCAR-8
SK-MEL-28 = tested on: SK-MEL-28
A549 = tested on: A549
EKVX = tested on: EKVX
OVCAR-5 = tested on: OVCAR-5
SF-268 = tested on: SF-268
SK-MEL-2 = tested on: SK-MEL-2
CAKI-1 = tested on: CAKI-1
SF-539 = tested on: SF-539
HCT-116 = tested on: HCT-116
U-251 = tested on: U-251
MDA-MB-435 = tested on: MDA-MB-435
BT-549 = tested on: BT-549
Hs-578T = tested on: Hs-578T
SR = tested on: SR

Measured: GI50

[O-][S+]1c2ccccc2N=C(c2cccs2)CC1c1ccccc1O (stereo not drawn)
inactive: UACC-62 56.2 µM | NCI-H460 > 100 µM | RPMI-8226 > 100 µM | LOX IMVI > 100 µM | OVCAR-8 > 100 µM | SK-MEL-28 > 100 µM | A549 > 100 µM | EKVX > 100 µM | OVCAR-5 > 100 µM | SF-268 > 100 µM | SK-MEL-2 > 100 µM | CAKI-1 > 100 µM | SF-539 > 100 µM

CN1C(=O)N/C(=C\c2ccc(S(=O)(=O)NN)cc2)C1=O
inactive: UACC-62 > 100 µM | RPMI-8226 > 100 µM | HCT-116 > 100 µM | LOX IMVI > 100 µM | OVCAR-8 > 100 µM | U-251 > 100 µM | SK-MEL-28 > 100 µM | A549 > 100 µM | EKVX > 100 µM | OVCAR-5 > 100 µM | SF-268 > 100 µM | SK-MEL-2 > 100 µM | CAKI-1 > 100 µM | MDA-MB-435 > 100 µM | BT-549 > 100 µM | Hs-578T > 100 µM

O=C(COc1ccc(OCC(=O)N2C(=O)CN(c3ccc(Cl)cc3)C2=S)cc1)N1C(=O)CN(c2ccc(Cl)cc2)C1=S
inactive: UACC-62 16.5 µM | NCI-H460 23.3 µM | RPMI-8226 21.2 µM | HCT-116 15.7 µM | U-251 24 µM | SK-MEL-28 36.3 µM | A549 21.5 µM | EKVX 6.62 µM | OVCAR-5 36.1 µM | SF-268 27.2 µM | SK-MEL-2 13.3 µM | CAKI-1 19.6 µM | MDA-MB-435 31.2 µM | BT-549 31.5 µM

O=C(CSCC(=O)N/N=C\c1ccc(O)c(O)c1O)N/N=C\c1ccc(O)c(O)c1O
inactive: UACC-62 15.6 µM | NCI-H460 23.3 µM | RPMI-8226 2.3 µM | HCT-116 3.37 µM | LOX IMVI 2.18 µM | OVCAR-8 2.31 µM | U-251 4.84 µM | SK-MEL-28 20.8 µM | A549 23.9 µM | EKVX 21.3 µM | SF-268 29.5 µM | SR 2.33 µM | SK-MEL-2 28.3 µM | CAKI-1 16.7 µM | SF-539 7.67 µM | MDA-MB-435 1.97 µM | Hs-578T 30.8 µM

S=C=Nc1ccc(CSc2nc3ccccc3[nH]2)cc1
inactive: UACC-62 15.8 µM | NCI-H460 20.8 µM | RPMI-8226 23.2 µM | HCT-116 24 µM | LOX IMVI 17.2 µM | OVCAR-8 17.8 µM | U-251 17.1 µM | SK-MEL-28 18.7 µM | A549 17.1 µM | EKVX 20 µM | OVCAR-5 18.2 µM | SF-268 17 µM | SR 20.7 µM | SK-MEL-2 18.9 µM | CAKI-1 17.7 µM | SF-539 18.8 µM | MDA-MB-435 17.5 µM | Hs-578T 41.6 µM

CC1CCC(C(=O)O)(C(Br)C(=O)O)CC1 (stereo not drawn)
inactive: UACC-62 > 100 µM | NCI-H460 > 100 µM | RPMI-8226 > 100 µM | HCT-116 > 100 µM | LOX IMVI > 100 µM | OVCAR-8 > 100 µM | U-251 > 100 µM | SK-MEL-28 > 100 µM | A549 > 100 µM | EKVX > 100 µM | OVCAR-5 > 100 µM | SR > 100 µM | SK-MEL-2 > 100 µM | CAKI-1 > 100 µM | MDA-MB-435 > 100 µM | BT-549 > 100 µM

[O-][n+]1onc2c1/C(=N/O)CCC2
inactive: UACC-62 > 100 µM | NCI-H460 > 100 µM | RPMI-8226 > 100 µM | HCT-116 > 100 µM | LOX IMVI > 100 µM | OVCAR-8 > 100 µM | SK-MEL-28 > 100 µM | A549 > 100 µM | EKVX > 100 µM | OVCAR-5 > 100 µM | SF-268 > 100 µM | SR > 100 µM | SK-MEL-2 > 100 µM | CAKI-1 > 100 µM | SF-539 > 100 µM | MDA-MB-435 > 100 µM | Hs-578T > 100 µM

NC(=O)C1C(=O)Oc2cccnc21 (stereo not drawn)
inactive: UACC-62 > 100 µM | NCI-H460 86.7 µM | RPMI-8226 > 100 µM | HCT-116 > 100 µM | LOX IMVI > 100 µM | OVCAR-8 > 100 µM | U-251 > 100 µM | SK-MEL-28 > 100 µM | A549 > 100 µM | EKVX > 100 µM | SF-539 > 100 µM

CC1(C)COC(c2cccc(C3=NC(C)(C)CO3)c2)=N1
inactive: UACC-62 64.3 µM | NCI-H460 > 100 µM | RPMI-8226 > 100 µM | HCT-116 > 100 µM | LOX IMVI > 100 µM | OVCAR-8 > 100 µM | U-251 > 100 µM | SK-MEL-28 > 100 µM | A549 > 100 µM | EKVX > 100 µM | OVCAR-5 > 100 µM | SF-268 > 100 µM | SR > 100 µM | SK-MEL-2 > 100 µM | CAKI-1 > 100 µM | SF-539 > 100 µM | MDA-MB-435 > 100 µM | BT-549 > 100 µM

CCCCNC(=S)Nc1nc(C(=O)NNC(=S)Nc2ccccc2)cs1
inactive: UACC-62 > 100 µM | NCI-H460 > 100 µM | RPMI-8226 > 100 µM | HCT-116 > 100 µM | OVCAR-8 > 100 µM | U-251 21.1 µM | A549 > 100 µM | EKVX > 100 µM | OVCAR-5 > 100 µM | SF-268 > 100 µM | SK-MEL-2 44.9 µM | CAKI-1 > 100 µM | SF-539 > 100 µM | MDA-MB-435 61 µM | BT-549 > 100 µM

Cc1ccc(/C=C2\CN(C)CC3C2=NN(c2ccccc2)C3c2ccc(C)cc2)cc1 (stereo not drawn)
inactive: UACC-62 > 100 µM | NCI-H460 > 100 µM | HCT-116 > 100 µM | LOX IMVI > 100 µM | OVCAR-8 > 100 µM | U-251 33.3 µM | SK-MEL-28 > 100 µM | A549 > 100 µM | EKVX 76.7 µM | OVCAR-5 > 10 µM | SF-268 > 100 µM | SK-MEL-2 29.4 µM | CAKI-1 > 100 µM | MDA-MB-435 > 100 µM | BT-549 > 100 µM | Hs-578T > 100 µM

CCOC(=O)/C=C(/N=P(c1ccccc1)(c1ccccc1)c1ccccc1)C(F)(F)F
inactive: UACC-62 5.9 µM | NCI-H460 > 10 µM | RPMI-8226 > 10 µM | HCT-116 > 10 µM | LOX IMVI > 10 µM | OVCAR-8 > 10 µM | SK-MEL-28 > 10 µM | A549 > 10 µM | EKVX > 10 µM | OVCAR-5 > 10 µM | SF-268 > 10 µM | SR > 10 µM | SK-MEL-2 > 10 µM | SF-539 > 10 µM | MDA-MB-435 > 10 µM | Hs-578T > 10 µM

Cc1ccc(N2C(=O)CS/C2=C(\C#N)c2nc3ccccc3[nH]2)cc1
inactive: UACC-62 16.1 µM | NCI-H460 > 100 µM | RPMI-8226 > 100 µM | HCT-116 > 100 µM | LOX IMVI > 100 µM | OVCAR-8 > 100 µM | U-251 > 100 µM | SK-MEL-28 > 100 µM | A549 > 100 µM | EKVX > 100 µM | OVCAR-5 > 100 µM | SF-268 > 100 µM | SR > 100 µM | SK-MEL-2 > 100 µM | CAKI-1 > 100 µM | SF-539 > 100 µM
